Here are results for three molecules from patent US20230321094A1, “COMBINATION THERAPIES WITH OLIG2 INHIBITORS” (Curtana Pharmaceuticals, Inc., priority 2020, published 2023).

The structures appear in SMILES notation.

The subject of the data set is NX18 cells. The experiment in a line: Glioblastoma neurosphere cell viability with the test compound and an mTOR inhibitor, Cell TiterGlo. The settings on record: NX18 neurospheres, 72 hours, normalized to DMSO vehicle; for cytotoxicity at 0.01 µM: mTOR inhibitor alone, final concentration 10 nM, read-out: percent inhibition of cell viability, mTOR inhibitor alone; for percent inhibition of cell viability, Combined: named mTOR inhibitor (10 nM) combined with test compound @ 3 μM. In kind it is cell-based. The protocol:
After another 72 hours, cell viability was determined using the Cell TiterGlo kit (#G7570, Promega, Madison. WI) following the manufacturer's instructions on a Tecan M200 Pro Plate Reader (Tecan, Mannedorf, CH). Percent viable cells were normalized against vehicle control (DMSO set as 100%).

Consider `CO[C@H]1C[C@@H]2CC[C@@H](C)[C@@](O)(O2)C(=O)C(=O)N2CCCC[C@H]2C(=O)O[C@H]([C@H](C)C[C@@H]2CC[C@@H](OCCO)[C@H](OC)C2)CC(=O)[C@H](C)/C=C(\C)[C@@H](O)[C@@H](OC)C(=O)[C@H](C)C[C@H](C)/C=C/C=C/C=C/1C` [Everolimus], for which the cytotoxicity at 0.01 µM turned out to be 45% and the “percent inhibition of cell viability, Combined” value turned out to be 60%.
For `CO[C@H]1C[C@@H]2CC[C@@H](C)[C@@](O)(O2)C(=O)C(=O)N2CCCC[C@H]2C(=O)O[C@H]([C@H](C)C[C@@H]2CC[C@@H](O)[C@H](OC)C2)CC(=O)[C@H](C)/C=C(\C)[C@@H](O)[C@@H](OC)C(=O)[C@H](C)C[C@H](C)/C=C/C=C/C=C/1C` [Rapamycin], in that order: 41% and 61%.
With `Cc1cc(NCCCN(C)C)nc(NC(=O)Nc2ccc(Cl)c(Cl)c2)n1` [Test compound], the cytotoxicity at 3 µM (test compound alone at 3 μM, read-out: percent inhibition of cell viability, Test compound @ 3 μM) worked out at 30%.
